Measurements taken from paper PMC5769417, “Single- and Multiple-Dose Trials to Determine the Pharmacokinetics, Safety, Tolerability, and Sex Effect of Oral Ginsenoside Compound K in Healthy Chinese Volunteers” (Frontiers in Pharmacology, 2018).

What was measured:
[1] = Multiple-dose trial, plasma pharmacokinetics; format: in vivo, human
Experimental: Multiple-dose pharmacokinetics: […] Multiple-dose pharmacokinetics: […] All samples were preserved at −70°C and analyzed with a LC-MS/MS (API 4000 LC-MS/MS, ABI Company, Foster City, CA, USA) at the Institute of Clinical Pharmacology, Central South University (Changsha, China). […] An aqueous solution of a stable internal standard (IS for CK: digoxin, Shijiaoke Biological Technology Co. Ltd., Beijing, China; IS for PPD: coumarin, Sigma-Aldrich, St. Louis, USA) and 1 M phosphate buffer were added to 0.5 ml of thawed sample, and analytical standards and quality control (QC) samples were prepared in the same matrix. All samples were treated with 2 ml of methyl tert-butyl ether (MTBE, CNW technologies GmbH, Duesseldorf, Germany) to precipitate the bulk of plasma proteins. After mechanical shock by mixing for 10 min and a subsequent centrifugation (4,000 rpm, 4°C, 10 min), 1.4 ml of the supernatant was transferred and blow-dried with nitrogen in a water bath at 40°C. Lastly, the residue was dissolved in 100 μl of mobile phase and then was subjected to a mechanical shock by mixing, and centrifuged. The supernatant was subsequently injected into the column for analysis. […] Accuracy and precision of the assay were determined by evaluating the performance of the assay controls. Over the quantification range, the accuracy of the QC samples varied from 85 to 115% and the intra- and inter-assay imprecision was <15%. […] The area under the curve (AUC) from time zero to the last time point (AUClast) and the AUC extrapolated to infinity (AUCinf) were calculated using the linear trapezoidal rule. The slope (elimination rate constant, K) of the terminal phase of the plasma concentration-time profile was determined, using a weighting factor of 1, by the method of least squares (log-linear regression of at least three data points). The t1/2 was estimated as (ln2)/K. […] The apparent volume of distribution (V/F) was equal to (CL/F)/K. The mean residence time (MRT) was calculated as the area under the first moments curve (AUMC) divided by AUC. The dose-normalized PK parameters e.g., Cmax/D and AUClast/D, were obtained by dividing each PK result by the administered dose. The cumulative excretion rate was calculated as the amount of unchanged drug in the urine over a time interval divided by the dose and was expressed as thousand points (‰). On day 15 in the multiple-dose trial, the PK parameters, such as t1/2, CL/F, and V/F at steady state were calculated using the same method as that used for the single-dose trial. In addition, the Tmax at steady state (Tmax,ss), Cmax at steady state (Cmax,ss), and Cmin,ss were obtained from experimental observation after the steady state during the multiple-dose trial. […] The average steady-state drug concentration (Cavg) is calculated as AUCτ/τ, and the fluctuation ratio was calculated as (Cmax,ss − Cmin,ss)/Cavg. The accumulation index was calculated using dosing interval and elimination rate constant as in the following equation: 1/(1 − e^−Kτ).

[2] = Single-dose trial, plasma pharmacokinetics; format: in vivo, human; details: single-dose trial, fasting
Experimental: Single-dose pharmacokinetics: The single-dose trial was performed first. […] Drinking before and after medication was prohibited for 2 h, but the amount and time of drinking were not strictly controlled at other times. All subjects had standard lunch and dinner (unified light diet) after medication 4 and 10 h. Single-dose pharmacokinetics: […] We preserved 8 ml specimens into 10 ml centrifuge tubes and stored at −70°C for PK assessment. All samples were preserved at −70°C and analyzed with a LC-MS/MS (API 4000 LC-MS/MS, ABI Company, Foster City, CA, USA) at the Institute of Clinical Pharmacology, Central South University (Changsha, China). […] An aqueous solution of a stable internal standard (IS for CK: digoxin, Shijiaoke Biological Technology Co. Ltd., Beijing, China; IS for PPD: coumarin, Sigma-Aldrich, St. Louis, USA) and 1 M phosphate buffer were added to 0.5 ml of thawed sample, and analytical standards and quality control (QC) samples were prepared in the same matrix. All samples were treated with 2 ml of methyl tert-butyl ether (MTBE, CNW technologies GmbH, Duesseldorf, Germany) to precipitate the bulk of plasma proteins. After mechanical shock by mixing for 10 min and a subsequent centrifugation (4,000 rpm, 4°C, 10 min), 1.4 ml of the supernatant was transferred and blow-dried with nitrogen in a water bath at 40°C. Lastly, the residue was dissolved in 100 μl of mobile phase and then was subjected to a mechanical shock by mixing, and centrifuged. The supernatant was subsequently injected into the column for analysis. […] Accuracy and precision of the assay were determined by evaluating the performance of the assay controls. Over the quantification range, the accuracy of the QC samples varied from 85 to 115% and the intra- and inter-assay imprecision was <15%. PK parameters were derived according to noncompartmental analysis and actual elapsed time from dosing by WinNonlin version 6.1 (Pharsight Corporation, Mountain View, CA, USA). […] The area under the curve (AUC) from time zero to the last time point (AUClast) and the AUC extrapolated to infinity (AUCinf) were calculated using the linear trapezoidal rule. The slope (elimination rate constant, K) of the terminal phase of the plasma concentration-time profile was determined, using a weighting factor of 1, by the method of least squares (log-linear regression of at least three data points). The t1/2 was estimated as (ln2)/K. […] The apparent volume of distribution (V/F) was equal to (CL/F)/K. The mean residence time (MRT) was calculated as the area under the first moments curve (AUMC) divided by AUC. The dose-normalized PK parameters e.g., Cmax/D and AUClast/D, were obtained by dividing each PK result by the administered dose. The cumulative excretion rate was calculated as the amount of unchanged drug in the urine over a time interval divided by the dose and was expressed as thousand points (‰).

[3] = 100 mg oral after breakfast, Day 1
[4] = 100 mg qd oral after breakfast, Day 15
[5] = 200 mg oral after breakfast, Day 1
[6] = 200 mg qd oral after breakfast, Day 15
[7] = 400 mg oral after breakfast, Day 1
[8] = 400 mg qd oral after breakfast, Day 15

CC(C)=CCC[C@](C)(O)[C@H]1CC[C@]2(C)[C@@H]1[C@H](O)C[C@@H]1[C@@]3(C)CC[C@H](O)C(C)(C)[C@@H]3CC[C@]12C [20(S)-PPD, 20(S)-protopanaxadiol]
AUClast [1, 3]: 60.6 ± 44.9 ng·h/mL | Cmax [1, 3]: 1.8 ± 1.1 ng/mL | Tmax, median (range) [1, 3]: 24.0 (24.0–36.0) h | AUClast [1, 4]: 154.5 ± 81.8 ng·h/mL | Cmax [1, 4]: 5.0 ± 2.5 ng/mL | Tmax, median (range) [1, 4]: 5.5 (0.3–24.0) h | AUClast [1, 5]: 54.1 ± 58.8 ng·h/mL | Cmax [1, 5]: 2.3 ± 3.4 ng/mL | Tmax, median (range) [1, 5]: 7.0 (4.0-48.0) h | AUClast [1, 6]: 170.9 ± 191.0 ng·h/mL | Cmax [1, 6]: 5.7 ± 6.1 ng/mL | Tmax, median (range) [1, 6]: 6.0 (0.3–24.0) h | AUClast [1, 7]: 133.1 ± 127.6 ng·h/mL | Cmax [1, 7]: 4.3 ± 3.6 ng/mL | Tmax, median (range) [1, 7]: 16.0 (3.0–36.0) h | AUClast [1, 8]: 463.1 ± 512.3 ng·h/mL | Cmax [1, 8]: 11.0 ± 10.2 ng/mL | Tmax, median (range) [1, 8]: 5.5 (0.5–8.0) h | concentration of metabolite relative to the parent drug ([1]; Day 1, 100–400 mg CK): 0.08–0.16% | AUClast ([2]; 25 mg oral): 32.4 ± 26.2 ng·h/mL | Cmax ([2]; 25 mg oral): 1.6 ± 1.2 ng/mL | Tmax, median (range) ([2]; 25 mg oral): 12.0 (8.0–24.0) h | AUClast ([2]; 50 mg oral): 43.9 ± 12.0 ng·h/mL | Cmax ([2]; 50 mg oral): 1.8 ± 0.6 ng/mL | Tmax, median (range) ([2]; 50 mg oral): 24.0 (12.0–24.0) h | AUClast ([2]; 100 mg oral): 167.6 ± 125.0 ng·h/mL | Cmax ([2]; 100 mg oral): 6.3 ± 4.2 ng/mL | Tmax, median (range) ([2]; 100 mg oral): 24.0 (12.0–36.0) h | AUClast ([2]; 200 mg oral): 117.8 ± 94.9 ng·h/mL | Cmax ([2]; 200 mg oral): 3.5 ± 2.7 ng/mL | Tmax, median (range) ([2]; 200 mg oral): 24.0 (6.0–36.0) h | AUClast ([2]; 400 mg oral): 157.1 ± 174.6 ng·h/mL | Cmax ([2]; 400 mg oral): 4.8 ± 4.3 ng/mL | Tmax, median (range) ([2]; 400 mg oral): 24.0 (5.0–48.0) h | AUClast ([2]; 600 mg oral): 269.8 ± 251.4 ng·h/mL | Cmax ([2]; 600 mg oral): 9.5 ± 9.8 ng/mL | Tmax, median (range) ([2]; 600 mg oral): 36.0 (24.0–72.0) h | AUClast ([2]; 800 mg oral): 179.1 ± 171.0 ng·h/mL | Cmax ([2]; 800 mg oral): 5.1 ± 5.3 ng/mL | Tmax, median (range) ([2]; 800 mg oral): 30.0 (3.0–72.0) h
